According to patent US4246280A, “20-Alkoxy-16-alkyl-prostadienoic acid derivatives” (priority 1974, dated 1981):

Assays:
[1] = Diarrhea-producing effect, oral, guinea-pigs; conditions: guinea pig, in vivo, 2hr to next morning, read-out: (A) Diarrhea-producing effect (b), ED50
Experimental: II. Diaarrhea-producing effect
Test compounds were administered orally to guinea-pigs. The appearance of diarrhea (loose or watery feces) at 2hr, 3hr, 4hr, 5hr and next morning was noted.

[2] = Antiasthmatic effect, aerosol (protection against sneezing induced by histamine aerosol in guinea-pigs); type: in vivo; conditions: aerosol of test compound 15 sec, histamine 0.1% aerosol
Experimental: Guinea-pigs were placed in a chamber and sprayed for 10 sec with an aerosol of histamine solution (0.1%) and onset of sneezing was recorded and animals with control time of 70-100 sec were selected. These animals were sprayed for 15 sec with an aerosol of test compounds. After 45 sec, sprayed histamine and observed for 3 min it was. […] The percent of animals protected was determined.

[3] = Antiasthmatic effect, oral (protection against histamine spray 30 min after oral administration in guinea-pigs); type: in vivo; conditions: for ED50: Cavia porcellus, 0.5 h, read-out: Antiasthmatic effect, Oral (a), ED50; for b/a: ratio of diarrhea ED50 (b) to oral antiasthmatic ED50 (a)
Experimental: Guinea-pigs were sprayed for 10 sec with histamine 30 min after oral administration of test compounds and observed for 3 min. The percent of aminals protected was determined.

[4] = Effect on air-way resistance (Konzett and Rossler; histamine-induced broncho-constriction, intraduodenal administration); type: in vivo, guinea-pig; conditions: Cavia porcellus, 0.5 h, read-out: (B) Effect on airway resistance, ED50
Experimental: III. Effect on air-way resistance
The air-way resistance of the guinea-pig lung was determined by the method of Konzett and Rossler (Arch. exp. Path. Pharmak., 195, 71-74(1940)). The bronchorelaxing activity of prostaglandins were expressed in terms of protective effect against broncho-constriction elicited by intravenous injection of histamine (3 μg/kg). Histamine was injected 30 min after intraduodenal administration of test compound to urethane anesthetized and artificially ventilated guinea-pigs.

[5] = guinea-pigs, oral, histamine 30 min after administration

Structure (SMILES)	TD50 [1] [mg/kg]	Antiasthmatic effect, Aerosol, ED50 [2] [µg/mL]	ED50 ([3]; po) [mg/kg]	b/a [3]	ED50 [3, 5] [mg/kg]	antiasthmatic effect upon oral administration (in words) ([3]; guinea-pigs, oral)	ED50 [4] [mg/kg]	ED50 ([4]; guinea-pigs, intraduodenal, histamine 3 μg/kg i.v. 30 min later) [mg/kg]
CCCC[C@@H](C)C(O)/C=C/[C@H]1[C@H](O)CC(=O)[C@@H]1C/C=C\CCCC(=O)O (stereo partly drawn) [11α,15-dihydroxy-16(R)-methyl-9-oxo-5(cis)-13(trans)prostadienoic acid]	0.025	0.011	0.0175	1.43				
CCCCC(C)C(O)/C=C/[C@H]1[C@H](O)CC(=O)[C@@H]1C/C=C\CCCC(=O)O (stereo partly drawn) [11α,15-dihydroxy-16-methyl-9-oxo-5(cis)-13(trans)prostadienoic acid]	0.1	0.009	0.025	4.0				
COCCCCCC(O)/C=C/[C@H]1[C@H](O)CC(=O)[C@@H]1C/C=C\CCCC(=O)O (stereo partly drawn) [20-methoxy-PGE2, 11α,15-dihydroxy-20-methoxy-9-oxo-5(cis)-13(trans)prostadienoic acid]		0.15			> 0.8	no antiasthmatic effect upon oral administration		
COCCCCC(C)C(O)/C=C/[C@H]1[C@H](O)CC(=O)[C@@H]1C/C=C\CCCC(=O)O (stereo partly drawn) [Example 3, 11α,15-dihydroxy-20-methoxy-16-methyl-9-oxo-5(cis)-13(trans)prostadienoic acid]	0.12	0.037	0.0098	12.2			0.0135	
COCCCC[C@H](C)C(O)/C=C/[C@H]1[C@H](O)CC(=O)[C@@H]1C/C=C\CCCC(=O)O (stereo partly drawn) [Example 6, 11α,15-dihydroxy-20-methoxy-16(S)-methyl-9-oxo-5(cis)-13(trans)prostadienoic acid]	0.14		0.71	20.0				
COCCCC[C@H](C)C(O)/C=C/[C@H]1[C@H](O)CC(=O)[C@@H]1C/C=C\CCCC(=O)OC (stereo partly drawn) [Example 7 ([α]D^25-58.0°), 11α,15-dihydroxy-20-methoxy-16(S)-methyl-9-oxo-5(cis)-13(trans)prostadienoic acid methyl ester]	0.145		0.016	9.06				
COCCCCC(C)C(O)/C=C/[C@H]1[C@H](O)CC(=O)[C@@H]1C/C=C\CCCC(=O)OC (stereo partly drawn) [Example 7 ([α]D^25-66.4°), 11α,15-dihydroxy-20-methoxy-16-methyl-9-oxo-5(cis)-13(trans)prostadienoic acid methyl ester]	0.051		0.0053	9.62				
CCCCC[C@H](O)/C=C/[C@H]1[C@H](O)CC(=O)[C@@H]1C/C=C\CCCC(=O)O [Prostaglandin E2]		0.15			> 0.8	no antiasthmatic effect upon oral administration		> 0.8
